pIC50: −log10 of the molar value. Where “and” joins values, the source holds several entries; their conditions need not be identical. Equal entries are not always repeated. Where two headings read alike, the source gives them in different places.
Assays:
[1] = system: IFNα-induced STAT1 phosphorylation (JAK1/TYK2 pathway); test: Human whole blood assay (hWBA), IFNα stimulation, phospho-STAT1 on CD4+ cells; type: cell-based; details: 6 different donors
Procedure: A flow cytometry analysis was performed to establish JAK1 over JAK2 compound selectivity ex vivo using human whole blood. Therefore, blood is taken from human volunteers who gave informed consent. Blood is then equilibrated for 30 min at 37° C. under gentle rocking, then aliquoted in Eppendorf tubes. Compound is added at different concentrations and incubated at 37° C. for 30 min under gentle rocking and subsequently stimulated for 20 min at 37° C. under gentle rocking with interleukin 6 (IL-6) for JAK1-dependent pathway stimulation, Interferon alpha (IFNα) for JAK1/TYK2 pathway stimulation, interleukin 2 (IL-2) for JAK1/JAK3 pathway stimulation or GM-CSF for JAK2-dependent pathway stimulation. Phospho-STAT1 (for IL-6- and IFNα-stimulated cells) and phospho-STAT5 (for IL-2- and GM-CSF-stimulated cells) levels are then evaluated using FACS analysis. […]
Cells were then washed once with 1×PBS and analyzed on a FACSCanto II flow cytometer (BD Biosciences).
50,000 total events were counted and Phospho-STAT1 positive cells were measured after gating on CD4+ cells, in the lymphocyte gate for IL-6- and IFNα-stimulated cells. Phospho-STAT5 positive cells were measured after gating on CD4+ cells, in the lymphocyte gate for IL-2-stimulated cells. Phospho-STAT5 positive cells were measured after gating on CD33+ cells. […]

[2] = system: JAK-STAT; test: JAK-STAT signalling assay (OSM-triggered pSTAT1(2)-luciferase reporter in HeLa cells); type: cell-based, human
Procedure: HeLa cells were maintained in Dulbecco's Modified Eagle's Medium (DMEM) containing 10% heat inactivated fetal calf serum, 100 U/mL penicillin and 100 μg/mL streptomycin. HeLa cells were used at 70% confluence for transfection. 20,000 cells in 87 μL cell culture medium were transiently transfected with 40 ng pSTAT1(2)-luciferase reporter (Panomics), 8 ng of LacZ reporter as internal control reporter and 52 ng of pBSK using 0.32 μL Jet-PEI (Polyplus) as transfection reagent per well in 96-well plate format. After overnight incubation at 37° C., 5% CO2, transfection medium was removed. 81 μL of DMEM+1.5% heat inactivated fetal calf serum was added. 9 μL compound at 10× concentration was added for 60 min and then 10 μL of human OSM (Peprotech) at 33 ng/mL final concentration.
The compound was tested in duplicate starting from 20 μM followed by a 1/3 serial dilution, 8 doses in total (20 μM-6.6 μM-2.2 μM-740 nM-250 nM-82 nM-27 nM-9 nM) in a final concentration of 0.2% DMSO.
After overnight incubation at 37° C., 5% CO2 cells were lysed by adding 100 μL lysis buffer/well (PBS, 0.9 mM CaCl2, 0.5 mM MgCl2, 10% Trehalose, 0.05% Tergitol NP9, 0.3% BSA).
40 μL of cell lysate was used to read β-galactosidase activity by adding 180 μL 11-Gal solution (30 μL ONPG 4 mg/mL+150 μL β-Galactosidase buffer (0.06 M Na2HPO4, 0.04 M NaH2PO4, 1 mM MgCl2)) for 20 min. The reaction was stopped by addition of 50 μL Na2CO3 1 M. Absorbance was read at 405 nm.
Luciferase activity was measured using 40 μL cell lysate plus 40 μL of Steadylite® as described by the manufacturer (Perkin Elmer), on the Envision (Perkin Elmer).
Omitting OSM was used as a positive control (100% inhibition). As negative control […] (0% inhibition) was used. The positive and negative controls were used to calculate z′ and ‘percent inhibition’ (PIN) values.
Percentage inhibition=((fluorescence determined in the presence of vehicle−fluorescence determined for sample with test compound present) divided by (fluorescence determined in the presence of vehicle−fluorescence determined for sample without trigger))*100.
PIN values were plotted for compounds tested in dose-response and EC50 values were derived.

Nc1nc2cccc(-c3ccc(CN4CCS(=O)(=O)CC4)cc3)n2n1 [Formula I, 5-[4-(1,1-Dioxothiomorpholin-4-ylmethyl)-phenyl]-[1,2,4]triazolo[1,5-a]pyridin-2-ylamine]
pIC50 [1]: 4.81
pIC50 ([2]; Homo sapiens, HeLa, average, read-out: IC50 (average)): < 5.13
pIC50 ([2]; Homo sapiens, HeLa, individual determinations, read-out: IC50): < 5.18
IC50 ([2]; individual determinations): Non active
pIC50 ([2]; individual determinations, read-out: IC50): < 5.18 and 5.05
